Test results from PMC8079033, “Design, synthesis, anticancer evaluation, and molecular modelling studies of novel tolmetin derivatives as potential VEGFR-2 inhibitors and apoptosis inducers” (Journal of Enzyme Inhibition and Medicinal Chemistry, 2021).

Experiments:
EKVX = experiment: NCI 60-cell line one-dose antiproliferative screen (SRB); format: cell-based; details: Homo sapiens, read-out: growth inhibition % (GI%)
Method: (§1) Anticancer activity screening of the newly synthesised compounds was measured in vitro utilising 60 different human tumour cell lines provided by US National Cancer Institute according to previously reported standard procedure[41–43] as follows: Cells are inoculated into 96-well microtiter plates in 100 ml. After cell inoculation, the microtiter plates are incubated at 37 °C, 5% CO2, 95% air, and 100% relative humidity for 24 h prior to addition of experimental compounds. After 24 h, two plates of each cell line are fixed in situ with TCA, to represent a measurement of the cell population for each cell line at the time of compound addition (Tz). Experimental compounds are solubilised in dimethyl sulfoxide at 400-fold the desired final maximum test concentration and stored frozen prior to use. At the time of compound addition, an aliquot of frozen concentrate is thawed and diluted to twice the desired final maximum test concentration with a complete medium containing […] gentamicin. Aliquots of […] of the compounds dilutions are added to the appropriate microtiter wells already containing 100 ml of medium, resulting in the required final compound concentration. Following compound addition, the plates are incubated for an additional 48 h at 37 °C, 5% CO2, 95% air, and 100% relative humidity. For adherent cells, the assay is terminated by the addition of cold trichloroacetic acid (TCA). Cells are fixed in situ by the gentle addition of 50 ml of cold 50% (w/v) TCA (final concentration, 10% TCA) and incubated for […] at 4 °C. The supernatant is discarded, and the plates are washed five times with tap water and air-dried. Sulforhodamine B (SRB) solution (100 ml) at 0.4% (w/v) in 1% acetic acid is added to each well, and plates are incubated for 10 min at room temperature. After staining, the unbound dye is removed by washing five times with 1% acetic acid and the plates are air-dried. The bound stain is subsequently solubilised with a 10 mM trizma base, and the absorbance is read on an automated plate reader at a wavelength of 515 nm. For suspension cells, the methodology is the same except that the assay is terminated by fixing settled cells at the bottom of the wells by gently adding 50 ml of 80% TCA (final concentration, 16% TCA). Using the absorbance measurements [time zero, (Tz), control growth, (C), and test growth in the presence of compound (Ti)], the percentage growth is calculated for each compound. The One-dose data are reported as a mean graph of the percent growth of treated cells. The reported number is growth relative to the no-compound control, and relative to the time zero number of cells. This allows the detection of both growth inhibition and lethality.
(§2) Fifteen newly synthesised compounds were tested for their in vitro antiproliferative activity by the National Cancer Institute (NCI), Maryland, USA[50], under the Developmental Therapeutic Program (DTP)[41]^,[43]^,[51]^,[52]. The tested compounds were evaluated at a concentration of 10 µM on a panel of 60 tumour cell lines representing leukaemia and non-small cell lung, colon, CNS, melanoma, ovarian, renal, prostate, and breast cancers. The antiproliferative activity was presented by the NCI as percent growth of the treated cells and is presented in Table 1 as growth inhibition percentage (GI%) achieved by the tested compounds.

T-47D = experiment: as above; format: cell-based; details: Homo sapiens, T47D, read-out: growth inhibition % (GI%)
Method: as §1, §2

ACHN = experiment: as above; format: cell-based; details: Homo sapiens, read-out: growth inhibition % (GI%)
Method: as §1, §2

IGROV1 = experiment: as above; format: cell-based; details: Homo sapiens, IGROV-1, read-out: growth inhibition % (GI%)
Method: as §1, §2

HCT-15 = experiment: as above; format: cell-based; details: Homo sapiens, read-out: growth inhibition % (GI%)
Method: as §1, §2

BT-5 = experiment: as above; format: cell-based; details: Homo sapiens, read-out: growth inhibition % (GI%)
Method: as §1, §2

SF-539 = experiment: as above; format: cell-based; details: Homo sapiens, read-out: growth inhibition % (GI%)
Method: as §1, §2

SW-620 = experiment: as above; format: cell-based; details: Homo sapiens, read-out: growth inhibition % (GI%)
Method: as §1, §2

MDA-MB-231/ATCC = experiment: as above; format: cell-based; details: Homo sapiens, read-out: growth inhibition % (GI%)
Method: as §1, §2

A549/ATCC = experiment: as above; format: cell-based; details: Homo sapiens, read-out: growth inhibition % (GI%)
Method: as §1, §2

PC-3 = experiment: as above; format: cell-based; details: Homo sapiens, read-out: growth inhibition % (GI%)
Method: as §1, §2

LOX IMVI = experiment: as above; format: cell-based; details: Homo sapiens, read-out: growth inhibition % (GI%)
Method: as §1, §2

CAKI-1 = experiment: as above; format: cell-based; details: Homo sapiens, read-out: growth inhibition % (GI%)
Method: as §1, §2

SNB-19 = experiment: as above; format: cell-based; details: Homo sapiens, read-out: growth inhibition % (GI%)
Method: as §1, §2

SNB-75 = experiment: as above; format: cell-based; details: Homo sapiens, read-out: growth inhibition % (GI%)
Method: as §1, §2

SN 12 C = experiment: as above; format: cell-based; details: Homo sapiens, SN12C, read-out: growth inhibition % (GI%)
Method: as §1, §2

NCI-H522 = experiment: as above; format: cell-based; details: Homo sapiens, read-out: growth inhibition % (GI%)
Method: as §1, §2

HS 578 T = experiment: as above; format: cell-based; details: Homo sapiens, read-out: growth inhibition % (GI%)
Method: as §1, §2

MCF7 = experiment: as above; format: cell-based; details: Homo sapiens, read-out: growth inhibition % (GI%)
Method: as §1, §2

RPMI-8226 = experiment: as above; format: cell-based; details: Homo sapiens, read-out: growth inhibition % (GI%)
Method: as §1, §2

M14 = experiment: as above; format: cell-based; details: Homo sapiens, read-out: growth inhibition % (GI%)
Method: as §1, §2

A498 = experiment: as above; format: cell-based; details: Homo sapiens, read-out: growth inhibition % (GI%)
Method: as §1, §2

MDA-MB-468 = experiment: as above; format: cell-based; details: Homo sapiens, read-out: growth inhibition % (GI%)
Method: as §1, §2

HOP-62 = experiment: as above; format: cell-based; details: Homo sapiens, read-out: growth inhibition % (GI%)
Method: as §1, §2

OVCAR-8 = experiment: as above; format: cell-based; details: Homo sapiens, read-out: growth inhibition % (GI%)
Method: as §1, §2

UACC-62 = experiment: as above; format: cell-based; details: Homo sapiens, read-out: growth inhibition % (GI%)
Method: as §1, §2

SF-268 = experiment: as above; format: cell-based; details: Homo sapiens, read-out: growth inhibition % (GI%)
Method: as §1, §2

SK-MEL-5 = experiment: as above; format: cell-based; details: Homo sapiens, read-out: growth inhibition % (GI%)
Method: as §1, §2

UO-31 = experiment: as above; format: cell-based; details: Homo sapiens, read-out: growth inhibition % (GI%)
Method: as §1, §2

MOLT-4 = experiment: as above; format: cell-based; details: Homo sapiens, read-out: growth inhibition % (GI%)
Method: as §1, §2

RXF 393 = experiment: as above; format: cell-based; details: Homo sapiens, read-out: growth inhibition % (GI%)
Method: as §1, §2

NCI-H226 = experiment: as above; format: cell-based; details: Homo sapiens, read-out: growth inhibition % (GI%)
Method: as §1, §2

NCI-H23 = experiment: as above; format: cell-based; details: Homo sapiens, read-out: growth inhibition % (GI%)
Method: as §1, §2

U251 = experiment: as above; format: cell-based; details: Homo sapiens, U-251, read-out: growth inhibition % (GI%)
Method: as §1, §2

NCI/ADR-RES = experiment: NCI 60-cell line one-dose antiproliferative screen (SRB); format: cell-based; details: Homo sapiens, read-out: growth inhibition % (GI%)
Method: as §1, §2

MDA-MB-435 = experiment: as above; format: cell-based; details: Homo sapiens, read-out: growth inhibition % (GI%)
Method: as §1, §2

OVCAR-5 = experiment: as above; format: cell-based; details: Homo sapiens, read-out: growth inhibition % (GI%)
Method: as §1, §2

K-562 = experiment: as above; format: cell-based; details: Homo sapiens, K562, read-out: growth inhibition % (GI%)
Method: as §1, §2

HOP-92 = experiment: as above; format: cell-based; details: Homo sapiens, read-out: growth inhibition % (GI%)
Method: as §1, §2

SF-295 = experiment: as above; format: cell-based; details: Homo sapiens, read-out: growth inhibition % (GI%)
Method: as §1, §2

UACC-257 = experiment: as above; format: cell-based; details: Homo sapiens, read-out: growth inhibition % (GI%)
Method: as §1, §2

MALME-3M = experiment: as above; format: cell-based; details: Homo sapiens, read-out: growth inhibition % (GI%)
Method: as §1, §2

SR = experiment: as above; format: cell-based; details: Homo sapiens, read-out: growth inhibition % (GI%)
Method: as §1, §2

HCT-116 = experiment: as above; format: cell-based; details: Homo sapiens, read-out: growth inhibition % (GI%)
Method: as §1, §2

NCI-H322M = experiment: as above; format: cell-based; details: Homo sapiens, read-out: growth inhibition % (GI%)
Method: as §1, §2

KM12 = experiment: as above; format: cell-based; details: Homo sapiens, read-out: growth inhibition % (GI%)
Method: as §1, §2

OVCAR-4 = experiment: as above; format: cell-based; details: Homo sapiens, read-out: growth inhibition % (GI%)
Method: as §1, §2

SMILES	inhibition at 10 µM (ACHN) [%]	inhibition at 10 µM (IGROV1) [%]	inhibition at 10 µM (SF-539) [%]	inhibition at 10 µM (MDA-MB-231/ATCC) [%]	inhibition at 10 µM (PC-3) [%]	inhibition at 10 µM (LOX IMVI) [%]	inhibition at 10 µM (CAKI-1) [%]	inhibition at 10 µM (SNB-19) [%]	inhibition at 10 µM (SNB-75) [%]	inhibition at 10 µM (SN 12 C) [%]	inhibition at 10 µM (NCI-H522) [%]	inhibition at 10 µM (MCF7) [%]	inhibition at 10 µM (MDA-MB-468) [%]	inhibition at 10 µM (OVCAR-8) [%]	inhibition at 10 µM (UACC-62) [%]	inhibition at 10 µM (SF-268) [%]	inhibition at 10 µM (SK-MEL-5) [%]	inhibition at 10 µM (UO-31) [%]	inhibition at 10 µM (NCI-H226) [%]	inhibition at 10 µM (U251) [%]	also measured
Cc1ccc(C(=O)c2ccc(CC(=O)NNC(=O)Nc3c(C)cccc3Cl)n2C)cc1 [Compound 8b, N-(2-Chloro-6-methylphenyl)-2–(2-(1-methyl-5–(4-methylbenzoyl)-1H-pyrrol-2-yl)acetyl)hydrazinecarboxamide]	< 10	11.2	< 10	< 10	< 10	< 10	11.3	16.1	27.9	< 10	< 10	< 10	< 10	< 10	< 10	< 10	< 10	26.1	< 10	< 10	inhibition at 10 µM (EKVX): < 10%; inhibition at 10 µM (T-47D): < 10%; inhibition at 10 µM (HCT-15): < 10%; inhibition at 10 µM (BT-5): 12.7%; inhibition at 10 µM (SW-620): < 10%; inhibition at 10 µM (A549/ATCC): < 10%; inhibition at 10 µM (HS 578 T): < 10%; inhibition at 10 µM (RPMI-8226): < 10%; inhibition at 10 µM (M14): < 10%; inhibition at 10 µM (A498): < 10%; inhibition at 10 µM (HOP-62): < 10%; inhibition at 10 µM (MOLT-4): < 10%; inhibition at 10 µM (RXF 393): < 10%; inhibition at 10 µM (NCI-H23): < 10%; melting point: 240 to 242 °C
Cc1ccc(C(=O)c2ccc(CC(=O)NN=C3C(=O)Nc4ccc(OC(F)(F)F)cc43)n2C)cc1 [Compound 6c, 2–(1-Methyl-5–(4-methylbenzoyl)-1H-pyrrol-2-yl)-N′-(2-oxo-5-(trifluoromethoxy)indolin-3-ylidene)acetohydrazide]	< 10	< 10	< 10	< 10	< 10	< 10	12.6	< 10	37.1	< 10	11.9	< 10	< 10	< 10	< 10	< 10	< 10	24.3	< 10	< 10	inhibition at 10 µM (T-47D): < 10%; inhibition at 10 µM (SW-620): < 10%; inhibition at 10 µM (NCI/ADR-RES): < 10%; inhibition at 10 µM (MDA-MB-435): < 10%; inhibition at 10 µM (OVCAR-5): < 10%; inhibition at 10 µM (K-562): < 10%; inhibition at 10 µM (HOP-62): 11.1%; inhibition at 10 µM (HOP-92): < 10%; inhibition at 10 µM (SF-295): < 10%; melting point: 157 to 159 °C
Cc1ccc(C(=O)c2ccc(CC(=O)NN=C3C(=O)Nc4ccc(Br)cc43)n2C)cc1 [Compound 6b, N′-(5-Bromo-2-oxoindolin-3-ylidene)-2–(1-methyl-5–(4-methylbenzoyl)-1H-pyrrol-2-yl)acetohydrazide]	< 10	< 10	< 10	< 10	< 10	10	15.4	< 10	36.3	< 10	13.2	< 10	< 10	< 10	< 10	< 10	< 10	25	< 10	34.4	inhibition at 10 µM (EKVX): < 10%; inhibition at 10 µM (UACC-257): < 10%; inhibition at 10 µM (NCI/ADR-RES): < 10%; inhibition at 10 µM (A549/ATCC): < 10%; inhibition at 10 µM (MALME-3M): < 10%; inhibition at 10 µM (MDA-MB-435): < 10%; inhibition at 10 µM (SR): < 10%; inhibition at 10 µM (OVCAR-5): < 10%; inhibition at 10 µM (RPMI-8226): < 10%; inhibition at 10 µM (M14): < 10%; inhibition at 10 µM (A498): 10.2%; inhibition at 10 µM (HCT-116): < 10%; inhibition at 10 µM (NCI-H322M): < 10%; inhibition at 10 µM (KM12): < 10%; inhibition at 10 µM (OVCAR-4): 10.1%; inhibition at 10 µM (K-562): 10.6%; inhibition at 10 µM (HOP-92): < 10%; inhibition at 10 µM (NCI-H23): 13.7%; melting point: 195 to 197 °C
